What was measured:
Experiment in all cases: Test D pre-/postemergence herbicide test
[1] = tested on: mustard, wild; assay type: in vivo, Sinapis arvensis; conditions: for Plant response rating: Mustard, Wild, scale 0 to 100; for Plant response rating, Mustard, Wild: scale 0 to 100 (0 no effect, 100 complete control)
From the text: (§1) Seeds of plant species selected from bluegrass (annual bluegrass, Poa annua), blackgrass (Alopecurus myosuroides), canarygrass (littleseed canarygrass, Phalaris minor), chickweed (common chickweed, Stellaria media), galium (catchweed bedstraw, Galium aparine), bromegrass, downy (downy bromegrass, Bromus tectorum), field poppy (Papaver rhoeas), field violet (Viola arvensis), foxtail, green (green foxtail, Setaria viridis), deadnettle (henbit deadnettle, Lamium amplexicaule), ryegrass, Italian (Italian ryegrass, Lolium multiflorum), kochia (Kochia scoparia), lambsquarters (Chenopodium album), oilseed rape (Brassica napus), pigweed (Amaranthus retroflexus), chamomile (scentless chamomile, Matricaria inodora), Russian thistle (Salsola kali), speedwell (bird's-eye speedwell, Veronica persica), barley, spring (spring barley, Hordeum vulgare), wheat, spring (spring wheat, Triticum aestivum), buckwheat, wild (wild buckwheat, Polygonum convolvulus), mustard, wild (wild mustard, Sinapis arvensis), oat, wild (wild oat, Avena fatua), radish, wild (wild radish, Raphanus raphanistrum), […]), barley, winter (winter barley, Hordeum vulgare), and wheat, winter (winter wheat, Triticum aestivum) were planted into a silt loam soil and treated preemergence with test chemicals formulated in a non-phytotoxic solvent mixture which included a surfactant. At the same time, these species were planted in pots containing Redi-Earth® planting medium (Scotts Company, 14111 Scottslawn Road, Marysville, Ohio 43041) comprising spaghnum peat moss, vermiculite, wetting agent and starter nutrients and treated with postemergence applications of the test chemicals formulated in the same manner. Plants ranged in height from 2 to 18 cm (1- to 4-leaf stage). Treated plants and controls were maintained in a controlled growth environment for 7 to 21 days after which time all species were compared to controls and visually evaluated. Plant response ratings, summarized in Table D, are based on a scale of 0 to 100 where 0 is no effect and 100 is complete control. A dash (-) response means no test result.

[2] = tested on: wheat, winter; assay type: in vivo, Triticum aestivum; conditions: for Plant response rating: Postemergence, Wheat, Winter, scale 0 to 100; for Plant response rating, Wheat, Winter: Preemergence, scale 0 to 100 (0 no effect, 100 complete control)
From the text: as §1

[3] = tested on: wheat, spring; assay type: in vivo, Triticum aestivum; conditions: for Plant response rating: Postemergence, Wheat, Spring, scale 0 to 100; for Plant response rating, Wheat, Spring: Preemergence, scale 0 to 100 (0 no effect, 100 complete control)
From the text: as §1

Work on `O=C1NCC(c2ccc(F)c(F)c2)C1C(=O)Nc1cccc(F)c1` (racemic) [Compound 12] yielded a Plant response rating ([1]; Postemergence, 16 g ai/ha) of 0, a Plant response rating ([1]; Postemergence, 31 g ai/ha) of 10 and a Plant response rating ([1]; Postemergence, 62 g ai/ha) of 40. The Plant response rating ([1]; Postemergence, 125 g ai/ha) was 100, the “Plant response rating, Mustard, Wild” value ([1]; Preemergence, 31 g ai/ha) was 0 and the “Plant response rating, Mustard, Wild” value ([1]; Preemergence, 62 g ai/ha) was 0. The “Plant response rating, Mustard, Wild” value ([1]; Preemergence, 16 g ai/ha) was 0, the Plant response rating ([1]; Preemergence, 125 g ai/ha) was 20 and the Plant response rating ([1]; Preemergence, 250 g ai/ha) was 70. The Plant response rating ([2]; 16 g ai/ha) was 0, the Plant response rating ([2]; 31 g ai/ha) was 0 and the Plant response rating ([2]; 62 g ai/ha) was 0. For the same molecule, the Plant response rating ([2]; 125 g ai/ha) was 0, the Plant response rating ([2]; 250 g ai/ha) was 0 and the “Plant response rating, Wheat, Winter” value ([2]; 31 g ai/ha) was 0. The “Plant response rating, Wheat, Winter” value ([2]; 62 g ai/ha) was 0, the “Plant response rating, Wheat, Winter” value ([2]; 125 g ai/ha) was 0 and the “Plant response rating, Wheat, Winter” value ([2]; 250 g ai/ha) was 0. For the same molecule, the “Plant response rating, Wheat, Winter” value ([2]; 16 g ai/ha) was 0, the Plant response rating ([3]; 16 g ai/ha) was 0 and the Plant response rating ([3]; 31 g ai/ha) was 0. It also gave a Plant response rating ([3]; 62 g ai/ha) of 0, a Plant response rating ([3]; 125 g ai/ha) of 0 and a Plant response rating ([3]; 250 g ai/ha) of 0. For the same molecule, the “Plant response rating, Wheat, Spring” value ([3]; 31 g ai/ha) was 0, the “Plant response rating, Wheat, Spring” value ([3]; 62 g ai/ha) was 0 and the “Plant response rating, Wheat, Spring” value ([3]; 125 g ai/ha) was 0. The “Plant response rating, Wheat, Spring” value ([3]; 250 g ai/ha) was 0 and the “Plant response rating, Wheat, Spring” value ([3]; 16 g ai/ha) was 0.
With `O=C1NCC(c2cccc(C(F)(F)F)c2)C1C(=O)Nc1ccc(F)cc1F` (racemic) [Compound 207] the “Plant response rating, Mustard, Wild” value ([1]; Preemergence, 31 g ai/ha) was 10, the “Plant response rating, Mustard, Wild” value ([1]; Preemergence, 62 g ai/ha) was 25 and the “Plant response rating, Mustard, Wild” value ([1]; Preemergence, 125 g ai/ha) was 25. For the same molecule, the Plant response rating ([1]; Preemergence, 250 g ai/ha) was 30, the “Plant response rating, Wheat, Winter” value ([2]; 31 g ai/ha) was 0 and the “Plant response rating, Wheat, Winter” value ([2]; 62 g ai/ha) was 15. For the same molecule, the “Plant response rating, Wheat, Winter” value ([2]; 125 g ai/ha) was 10, the “Plant response rating, Wheat, Winter” value ([2]; 250 g ai/ha) was 20 and the “Plant response rating, Wheat, Spring” value ([3]; 31 g ai/ha) was 5. The “Plant response rating, Wheat, Spring” value ([3]; 62 g ai/ha) was 10, the “Plant response rating, Wheat, Spring” value ([3]; 125 g ai/ha) was 10 and the “Plant response rating, Wheat, Spring” value ([3]; 250 g ai/ha) was 10.
